Biological target: T1, bovine dopamine β-hydroxylase (Bos taurus, UniProt P15101)
T1 construct: Bovine DBH from adrenal glands was obtained from Sigma Chemical Co; purchased Sigma Chemicals (St Louis, Mo., USA); host or cells: bovine adrenal glands
T1 sequence (P15101 1-610): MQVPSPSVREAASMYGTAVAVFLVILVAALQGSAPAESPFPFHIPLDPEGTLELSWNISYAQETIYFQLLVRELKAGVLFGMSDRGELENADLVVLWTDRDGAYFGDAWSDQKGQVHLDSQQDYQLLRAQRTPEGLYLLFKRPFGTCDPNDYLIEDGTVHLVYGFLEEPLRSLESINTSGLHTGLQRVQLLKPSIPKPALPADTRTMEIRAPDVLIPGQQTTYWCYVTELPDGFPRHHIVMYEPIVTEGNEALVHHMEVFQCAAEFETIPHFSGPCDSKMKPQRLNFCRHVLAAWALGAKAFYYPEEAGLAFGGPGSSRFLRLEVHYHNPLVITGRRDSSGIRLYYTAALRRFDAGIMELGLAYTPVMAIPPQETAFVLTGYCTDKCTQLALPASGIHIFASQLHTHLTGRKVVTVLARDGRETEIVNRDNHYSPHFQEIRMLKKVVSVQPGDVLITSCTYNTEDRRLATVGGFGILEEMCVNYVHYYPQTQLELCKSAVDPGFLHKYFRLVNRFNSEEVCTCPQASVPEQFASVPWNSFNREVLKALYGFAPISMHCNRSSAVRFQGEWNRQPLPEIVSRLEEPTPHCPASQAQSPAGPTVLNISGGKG
Experiment: DBH assay, conversion of tyramine to octopamine
Type: biochemical
Experimental: Bovine and human dopamine β-hydroxylase activity were assayed by measuring the conversion of tyramine to octopamine. Bovine adrenal dopamine β-hydroxylase was obtained from Sigma Chemicals (St Louis, Mo., USA) whereas human dopamine β-hydroxylase was purified from the culture medium of the neuroblastoma cell line SK-N-SH. The assay was performed at pH 5.2 and 32° C. in a medium containing 0.125 M NaAc, 10 mM fumarate, 0.5-2 μM CuSO4, 0.1 mg·ml^−1 catalase, 0.1 mM tyramine and 4 mM ascorbate. In a typical assay, 0.5-1 milliunits of enzyme were added to the reaction mixture and, subsequently, a substrate mixture containing catalase, tyramine and ascorbate was added to initiate the reaction (final volume of 200 μl). Samples were incubated with or without the appropriate concentration of nepicastat or Compound B at 37° C. for 30 to 40 minutes. The reaction was quenched by the stop solution containing 25 mM EDTA and 240 μM 3-hydroxytyramine (internal standard). The samples were analyzed for octopamine by reverse phase high pressure liquid chromatography (HPLC) using ultraviolet-detection at […]. The HPLC chromatography run was carried out at the flow rate of 1 ml·min^−1 using a LiChroCART 125-4 RP-18 column and isocratic elution with 10 mM acidic acid, 10 mM 1-heptane sulfonic acid, 12 mM tetrabutyl ammonium phosphate and 10% methanol. The remaining percent activity was calculated based on controls, corrected using internal standards and fitted to a non-linear four-parameter concentration-response curve.
DBH activity was assayed by measuring the conversion of tyramine to octopamine. […] The samples were analyzed for octopamine by reverse phase HPLC using UV detection at […]. The remaining percent activity was calculated based on controls (without inhibitor), corrected using internal standards and fitted to a non-linear 4-parameter concentration-response curve to obtain IC50 values.
An HPLC assay was used to measure DBH activity using tyramine and ascorbate as substrates. […] The samples (150 μl) were loaded to a Gilson autosampler and analyzed by HPLC using UV detection at 280 nm. […]

SMILES	potency of nepicastat relative to Compound B (bovine DBH) [fold]	potency of nepicastat relative to SKF-102698 (bovine enzyme) [fold]	IC50 (0.1 mM tyramine, 4 mM ascorbate, pH 5.2) [nM]
Cl.NCc1c[nH]c(=S)n1[C@H]1CCc2c(F)cc(F)cc2C1 [nepicastat, (S)-5-Aminomethyl-1-(5,7-difluoro-1,2,3,4-tetrahydronaphth-2-yl)-2,3-dihydro-2-thioxo-1H-imidazole hydrochloride]	3	8	
Fc1cc(F)cc(Cn2cc[nH]c2=S)c1 [SKF-102698, reference compound]			67 ± 4.2

Source: US10561638B2, “Methods for treating dependence” (Biotie Therapies, Inc., priority 2007, dated 2020)
